The values that follow come from patent US20210317134A1, “UBIQUITIN-SPECIFIC-PROCESSING PROTEASE 7 (USP7) MODULATORS AND USES THEREOF” (RAPT THERAPEUTICS, INC., priority 2019, published 2021).

Sequence of USP7 (Q93009 whole entry): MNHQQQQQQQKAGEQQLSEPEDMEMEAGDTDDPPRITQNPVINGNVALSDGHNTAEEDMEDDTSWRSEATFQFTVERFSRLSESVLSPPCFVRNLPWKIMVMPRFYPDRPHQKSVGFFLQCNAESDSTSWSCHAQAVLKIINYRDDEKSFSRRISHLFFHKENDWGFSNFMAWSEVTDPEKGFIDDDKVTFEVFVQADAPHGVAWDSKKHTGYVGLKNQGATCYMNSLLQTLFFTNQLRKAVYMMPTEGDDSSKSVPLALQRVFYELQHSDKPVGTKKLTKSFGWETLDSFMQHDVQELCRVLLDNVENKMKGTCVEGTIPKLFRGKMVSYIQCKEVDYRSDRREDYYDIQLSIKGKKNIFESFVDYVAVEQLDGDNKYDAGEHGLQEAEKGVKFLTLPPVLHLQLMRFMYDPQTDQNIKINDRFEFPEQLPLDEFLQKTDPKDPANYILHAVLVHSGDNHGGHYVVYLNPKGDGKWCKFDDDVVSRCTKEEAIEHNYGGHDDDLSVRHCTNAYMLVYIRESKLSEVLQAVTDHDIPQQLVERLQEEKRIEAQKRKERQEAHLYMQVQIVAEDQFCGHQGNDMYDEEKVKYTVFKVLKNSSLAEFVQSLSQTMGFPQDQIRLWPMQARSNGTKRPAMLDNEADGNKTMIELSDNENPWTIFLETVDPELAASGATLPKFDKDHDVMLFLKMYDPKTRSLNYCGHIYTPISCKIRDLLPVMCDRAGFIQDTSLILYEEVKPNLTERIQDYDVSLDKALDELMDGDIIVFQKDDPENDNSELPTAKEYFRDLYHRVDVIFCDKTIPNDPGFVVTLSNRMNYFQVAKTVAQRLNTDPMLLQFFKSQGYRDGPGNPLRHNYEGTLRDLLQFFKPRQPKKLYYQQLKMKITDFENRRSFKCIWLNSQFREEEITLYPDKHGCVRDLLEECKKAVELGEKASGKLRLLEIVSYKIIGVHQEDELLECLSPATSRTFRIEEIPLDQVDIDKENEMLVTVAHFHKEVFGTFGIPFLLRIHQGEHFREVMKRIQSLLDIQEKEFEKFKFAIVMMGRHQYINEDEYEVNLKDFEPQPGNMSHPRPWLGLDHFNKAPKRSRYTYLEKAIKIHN

The test concerns the target USP7 (Homo sapiens, UniProt Q93009). The experiment in a line: USP7 inhibitory potency (Table 1). Format: biochemical.
For orientation: IC50 means the concentration at which inhibition is half-maximal. Consider `OCC1Cc2nccc(-c3cc(Cl)cc4c3O[C@@H](c3onc5c3CNCC5)C4)c2O1` (stereo partly drawn) [(7-((R)-5-chloro-2-(4,5,6,7-tetrahydroisoxazolo[4,3-c]pyridin-3-yl)-2,3-dihydrobenzofuran-7-yl)-2,3-dihydrofuro[3,2-b]pyridin-2-yl)methanol], for which the IC50 lay within 10000 to 30000 nM. Consider `O=C(C1Cc2cc(Cl)cc(-c3ccnc(NCc4ccccc4)c3)c2O1)N1CCNCC1` (centres unmarked) [(7-(2-(benzylamino)pyridin-4-yl)-5-chloro-2,3-dihydrobenzofuran-2-yl)(piperazin-1-yl)methanone], for which the IC50 lay in the range of 1000 to 10000 nM.

`Cn1nc2c(c1[C@H]1Cc3cc(Cl)cc(-c4ncnc5ccsc45)c3O1)CNCC2` [(R)-4-(5-chloro-2-(2-methyl-4,5,6,7-tetrahydro-2H-pyrazolo[4,3-c]pyridin-3-yl)-2,3-dihydrobenzofuran-7-yl)thieno[3,2-d]pyrimidine] registered an IC50 of under 1000 nM. As for `O=C1NC(=O)C(c2cc3nccc(-c4cc(Cl)cc5c4O[C@@H](C(=O)N4CCNCC4)C5)c3s2)N1` (stereo partly drawn) [5-(7-((R)-5-chloro-2-(piperazine-1-carbonyl)-2,3-dihydrobenzofuran-7-yl)thieno[3,2-b]pyridin-2-yl)imidazolidine-2,4-dione], the figure is under 1000 nM. As for `O=C1CCC(c2cc3nccc(-c4cc(Cl)cc5c4O[C@@H](c4onc6c4CNCC6)C5)c3s2)N1` (stereo partly drawn) [5-(7-((R)-5-chloro-2-(4,5,6,7-tetrahydroisoxazolo[4,3-c]pyridin-3-yl)-2,3-dihydrobenzofuran-7-yl)thieno[3,2-b]pyridin-2-yl)pyrrolidin-2-one], the figure is 1000 to 10000 nM.

Consider `N#Cc1ccc2c(-c3cc(Cl)cc4c3O[C@@H](c3n[nH]c5c3CNCC5)C4)ccnc2c1` [(R)-4-(5-chloro-2-(4,5,6,7-tetrahydro-1H-pyrazolo[4,3-c]pyridin-3-yl)-2,3-dihydrobenzofuran-7-yl)quinoline-7-carbonitrile], for which the IC50 was under 1000 nM. As to `O=C(C1Cc2cc(Cl)cc(-c3ccnc4[nH]ccc34)c2O1)N1CCNCC1` (centres unmarked) [(5-chloro-7-(1H-pyrrolo[2,3-b]pyridin-4-yl)-2,3-dihydrobenzofuran-2-yl)(piperazin-1-yl)methanone], the half-maximal inhibitory concentration (IC50) was under 1000 nM. The compound `CCC(O)c1cc2nccc(-c3cc(Cl)cc4c3O[C@@H](c3ocnc3CN(C)C)C4)c2s1` (stereo partly drawn) [1-(7-((R)-5-chloro-2-(4-((dimethylamino)methyl)oxazol-5-yl)-2,3-dihydrobenzofuran-7-yl)thieno[3,2-b]pyridin-2-yl)propan-1-ol] gave a half-inhibitory concentration (IC50) of under 1000 nM. For `OCC(O)(CCl)c1cc2nccc(-c3cc(Cl)cc4c3O[C@@H](c3onc5c3CNCC5)C4)c2s1` (stereo partly drawn) [3-chloro-2-(7-((R)-5-chloro-2-(4,5,6,7-tetrahydroisoxazolo[4,3-c]pyridin-3-yl)-2,3-dihydrobenzofuran-7-yl)thieno[3,2-b]pyridin-2-yl)propane-1,2-diol], the IC50 was under 1000 nM.

`CN(C)C1CCN(C(=O)[C@H]2Cc3cc(Cl)cc(-c4ccnc5cc(CO)sc45)c3O2)CC1` [(R)-(5-chloro-7-(2-(hydroxymethyl)thieno[3,2-b]pyridin-7-yl)-2,3-dihydrobenzofuran-2-yl)(4-(dimethylamino)piperidin-1-yl)methanone] returned a half-maximal inhibitory concentration (IC50) of under 1000 nM.

Compound `CC[C@H](O)c1cc2nccc(-c3cc(Cl)cc4c3O[C@@H](C(=O)N3CCNCC3)C4)c2s1` [((R)-5-chloro-7-(2-((S)-1-hydroxypropyl)thieno[3,2-b]pyridin-7-yl)-2,3-dihydrobenzofuran-2-yl)(piperazin-1-yl)methanone] showed an IC50 of under 1000 nM. Compound `O=C1CCC(=O)N1Cc1ccc2c(-c3cc(Cl)cc4c3O[C@@H](c3onc5c3CNCC5)C4)ccnc2c1` [(R)-1-((4-(5-chloro-2-(4,5,6,7-tetrahydroisoxazolo[4,3-c]pyridin-3-yl)-2,3-dihydrobenzofuran-7-yl)quinolin-7-yl)methyl)pyrrolidine-2,5-dione] came in with an IC50 of 1000 to 10000 nM.

Compound `O=C(C1Cc2cc(Cl)cc(-c3ccnc4[nH]ccc34)c2O1)N1CCC(O)(c2ccncc2)CC1` (centres unmarked) [(5-chloro-7-(1H-pyrrolo[2,3-b]pyridin-4-yl)-2,3-dihydrobenzofuran-2-yl)(4-hydroxy-4-(pyridin-4-yl)piperidin-1-yl)methanone] displayed an IC50 of under 1000 nM. For `NC(=O)c1cc2nccc(-c3cc(Cl)cc4c3OC(C(=O)N3CCNCC3)C4)c2s1` (centres unmarked) [7-(5-chloro-2-(piperazine-1-carbonyl)-2,3-dihydrobenzofuran-7-yl)thieno[3,2-b]pyridine-2-carboxamide] the value was 1000 to 10000 nM; for `O=C(C1Cc2cc(Cl)cc(-c3ccnc4c3ccn4Cc3ccccc3)c2O1)N1CCNCC1` (centres unmarked) [(7-(1-Benzyl-1H-pyrrolo[2,3-b]pyridin-4-yl)-5-chloro-2,3-dihydrobenzofuran-2-yl)(piperazin-1-yl)methanone], 10000 to 30000 nM. As for `CCC(=O)NCc1cc2nccc(-c3cc(Cl)cc4c3O[C@@H](c3onc5c3CNCC5)C4)c2s1` [(R)-N-((7-(5-chloro-2-(4,5,6,7-tetrahydroisoxazolo[4,3-c]pyridin-3-yl)-2,3-dihydrobenzofuran-7-yl)thieno[3,2-b]pyridin-2-yl)methyl)propionamide], the figure is under 1000 nM; as for `O=C(C1Cc2cc(Cl)cc(-c3ccnc(NCCO)c3)c2O1)N1CCNCC1` (centres unmarked) [(5-chloro-7-(2-((2-hydroxyethyl)amino)pyridin-4-yl)-2,3-dihydrobenzofuran-2-yl)(piperazin-1-yl)methanone], 1000 to 10000 nM. Compound `CC(Cc1cc2nccc(-c3cc(Cl)cc4c3O[C@@H](C(=O)N3CCNCC3)C4)c2s1)NS(C)(=O)=O` (stereo partly drawn) [N-(1-(7-((R)-5-chloro-2-(piperazine-1-carbonyl)-2,3-dihydrobenzofuran-7-yl)thieno[3,2-b]pyridin-2-yl)propan-2-yl)methanesulfonamide] had an IC50 of under 1000 nM. For `Cc1cc2ncnc(-c3cc(Cl)cc4c3O[C@@H](c3onc5c3CNCC5)C4)c2o1` [(R)-3-(5-chloro-7-(6-methylfuro[3,2-d]pyrimidin-4-yl)-2,3-dihydrobenzofuran-2-yl)-4,5,6,7-tetrahydroisoxazolo[4,3-c]pyridine] the value was under 1000 nM; for `CC(=O)NCC1Cc2nccc(-c3cc(Cl)cc4c3O[C@@H](C(=O)N3CCNCC3)C4)c2C1` (stereo partly drawn) [N-((4-((R)-5-chloro-2-(piperazine-1-carbonyl)-2,3-dihydrobenzofuran-7-yl)-6,7-dihydro-5H-cyclopenta[b]pyridin-6-yl)methyl)acetamide], 1000 to 10000 nM; for `O=C([C@H]1Cc2cc(Cl)cc(-c3ccnc4cc(C5(O)COC5)sc34)c2O1)N1CCNCC1` [(R)-(5-chloro-7-(2-(3-hydroxyoxetan-3-yl)thieno[3,2-b]pyridin-7-yl)-2,3-dihydrobenzofuran-2-yl)(piperazin-1-yl)methanone], under 1000 nM.

In turn, `O=C(C1Cc2cc(Cl)cc(-c3ccnc4ccncc34)c2O1)N1CCNCC1` (centres unmarked) [(5-chloro-7-(1,6-naphthyridin-4-yl)-2,3-dihydrobenzofuran-2-yl)(piperazin-1-yl)methanone] registered a half-inhibitory concentration (IC50) of 10000 to 30000 nM. `CN1CC(=O)N(Cc2cc3nccc(-c4cc(Cl)cc5c4O[C@@H](C(=O)N4CCNCC4)C5)c3s2)C1=O` [(R)-3-((7-(5-chloro-2-(piperazine-1-carbonyl)-2,3-dihydrobenzofuran-7-yl)thieno[3,2-b]pyridin-2-yl)methyl)-1-methylimidazolidine-2,4-dione] yielded a concentration for half-maximal inhibition (IC50) of under 1000 nM. For `O=C(C1Cc2cc(Cl)cc(-c3ccnc4[nH]c(CO)cc34)c2O1)N1CCNCC1` (centres unmarked) [(5-chloro-7-(2-(hydroxymethyl)-1H-pyrrolo[2,3-b]pyridin-4-yl)-2,3-dihydrobenzofuran-2-yl)(piperazin-1-yl)methanone] the value was under 1000 nM. For `O=C(C1Cc2cc(Cl)cc(-c3ccnc4[nH]ccc34)c2O1)N1CCN[C@H](CO)C1` (stereo partly drawn) [(5-chloro-7-(1H-pyrrolo[2,3-b]pyridin-4-yl)-2,3-dihydrobenzofuran-2-yl)((S)-3-(hydroxymethyl)piperazin-1-yl)methanone] the value was 1000 to 10000 nM; for `O=C(C1Cc2cc(Cl)cc(-c3ccnc4[nH]ccc34)c2O1)N1CCC(O)(c2cccnc2)CC1` (centres unmarked) [(5-chloro-7-(1H-pyrrolo[2,3-b]pyridin-4-yl)-2,3-dihydrobenzofuran-2-yl)(4-hydroxy-4-(pyridin-3-yl)piperidin-1-yl)methanone], under 1000 nM.

Take `OC1(c2cc3nccc(-c4cc(Cl)cc5c4O[C@@H](c4onc6c4CNCC6)C5)c3s2)CCC1` [(R)-1-(7-(5-chloro-2-(4,5,6,7-tetrahydroisoxazolo[4,3-c]pyridin-3-yl)-2,3-dihydrobenzofuran-7-yl)thieno[3,2-b]pyridin-2-yl)cyclobutan-1-ol]: the IC50 is under 1000 nM. For `O=C([C@H]1Cc2cc(Cl)cc(-c3ccnc4cc(C(O)(CO)CCl)sc34)c2O1)N1CCNCC1` (stereo partly drawn) [((2R)-5-chloro-7-(2-(1-chloro-2,3-dihydroxypropan-2-yl)thieno[3,2-b]pyridin-7-yl)-2,3-dihydrobenzofuran-2-yl)(piperazin-1-yl)methanone] the value was under 1000 nM; for `O=C(N[C@@H]1CCCNC1)C1Cc2cc(Cl)cc(-c3ccnc4[nH]ccc34)c2O1` (stereo partly drawn) [5-Chloro-N-((R)-piperidin-3-yl)-7-(1H-pyrrolo[2,3-b]pyridin-4-yl)-2,3-dihydrobenzofuran-2-carboxamide], 1000 to 10000 nM. As for `CN(C)S(=O)(=O)CCc1cc2nccc(-c3cc(Cl)cc4c3O[C@@H](C(=O)N3CCNCC3)C4)c2s1` [(R)-2-(7-(5-chloro-2-(piperazine-1-carbonyl)-2,3-dihydrobenzofuran-7-yl)thieno[3,2-b]pyridin-2-yl)-N,N-dimethylethane-1-sulfonamide], the figure is under 1000 nM; as for `CNC(=O)c1cc2c(-c3cc(Cl)cc4c3OC(C(=O)N3CCNCC3)C4)ccnc2[nH]1` (centres unmarked) [4-(5-Chloro-2-(piperazine-1-carbonyl)-2,3-dihydrobenzofuran-7-yl)-N-methyl-1H-pyrrolo[2,3-b]pyridine-2-carboxamide], 10000 to 30000 nM; as for `CCN1CCc2noc([C@H]3Cc4cc(Cl)cc(-c5ccnc6cc(CO)sc56)c4O3)c2C1` [(R)-(7-(5-chloro-2-(5-ethyl-4,5,6,7-tetrahydroisoxazolo[4,3-c]pyridin-3-yl)-2,3-dihydrobenzofuran-7-yl)thieno[3,2-b]pyridin-2-yl)methanol], under 1000 nM.
